# Reference: patent US10472356B2, “Bicyclic ketone sulfonamide compounds” (AMGEN INC., priority 2015, dated 2019)
# What was measured:
# Type in all cases: cell-based
# human Nav1.7 [1] = target: T1, human Nav1.7 (Homo sapiens, UniProt Q15858); test: Nav 1.7 In Vitro PatchXpress (PX) Assay; settings: HEK 293 cells stably transfected with human Nav1.7; PatchXpress whole cell voltage clamp; partially inactivated state (holding potential yielding 20 to 50% inactivation); read-out: hNav1.7 PX IC50
# T1 construct: expressed in transfected cells; host or cells: HEK293
# T1 sequence (Q15858 whole entry): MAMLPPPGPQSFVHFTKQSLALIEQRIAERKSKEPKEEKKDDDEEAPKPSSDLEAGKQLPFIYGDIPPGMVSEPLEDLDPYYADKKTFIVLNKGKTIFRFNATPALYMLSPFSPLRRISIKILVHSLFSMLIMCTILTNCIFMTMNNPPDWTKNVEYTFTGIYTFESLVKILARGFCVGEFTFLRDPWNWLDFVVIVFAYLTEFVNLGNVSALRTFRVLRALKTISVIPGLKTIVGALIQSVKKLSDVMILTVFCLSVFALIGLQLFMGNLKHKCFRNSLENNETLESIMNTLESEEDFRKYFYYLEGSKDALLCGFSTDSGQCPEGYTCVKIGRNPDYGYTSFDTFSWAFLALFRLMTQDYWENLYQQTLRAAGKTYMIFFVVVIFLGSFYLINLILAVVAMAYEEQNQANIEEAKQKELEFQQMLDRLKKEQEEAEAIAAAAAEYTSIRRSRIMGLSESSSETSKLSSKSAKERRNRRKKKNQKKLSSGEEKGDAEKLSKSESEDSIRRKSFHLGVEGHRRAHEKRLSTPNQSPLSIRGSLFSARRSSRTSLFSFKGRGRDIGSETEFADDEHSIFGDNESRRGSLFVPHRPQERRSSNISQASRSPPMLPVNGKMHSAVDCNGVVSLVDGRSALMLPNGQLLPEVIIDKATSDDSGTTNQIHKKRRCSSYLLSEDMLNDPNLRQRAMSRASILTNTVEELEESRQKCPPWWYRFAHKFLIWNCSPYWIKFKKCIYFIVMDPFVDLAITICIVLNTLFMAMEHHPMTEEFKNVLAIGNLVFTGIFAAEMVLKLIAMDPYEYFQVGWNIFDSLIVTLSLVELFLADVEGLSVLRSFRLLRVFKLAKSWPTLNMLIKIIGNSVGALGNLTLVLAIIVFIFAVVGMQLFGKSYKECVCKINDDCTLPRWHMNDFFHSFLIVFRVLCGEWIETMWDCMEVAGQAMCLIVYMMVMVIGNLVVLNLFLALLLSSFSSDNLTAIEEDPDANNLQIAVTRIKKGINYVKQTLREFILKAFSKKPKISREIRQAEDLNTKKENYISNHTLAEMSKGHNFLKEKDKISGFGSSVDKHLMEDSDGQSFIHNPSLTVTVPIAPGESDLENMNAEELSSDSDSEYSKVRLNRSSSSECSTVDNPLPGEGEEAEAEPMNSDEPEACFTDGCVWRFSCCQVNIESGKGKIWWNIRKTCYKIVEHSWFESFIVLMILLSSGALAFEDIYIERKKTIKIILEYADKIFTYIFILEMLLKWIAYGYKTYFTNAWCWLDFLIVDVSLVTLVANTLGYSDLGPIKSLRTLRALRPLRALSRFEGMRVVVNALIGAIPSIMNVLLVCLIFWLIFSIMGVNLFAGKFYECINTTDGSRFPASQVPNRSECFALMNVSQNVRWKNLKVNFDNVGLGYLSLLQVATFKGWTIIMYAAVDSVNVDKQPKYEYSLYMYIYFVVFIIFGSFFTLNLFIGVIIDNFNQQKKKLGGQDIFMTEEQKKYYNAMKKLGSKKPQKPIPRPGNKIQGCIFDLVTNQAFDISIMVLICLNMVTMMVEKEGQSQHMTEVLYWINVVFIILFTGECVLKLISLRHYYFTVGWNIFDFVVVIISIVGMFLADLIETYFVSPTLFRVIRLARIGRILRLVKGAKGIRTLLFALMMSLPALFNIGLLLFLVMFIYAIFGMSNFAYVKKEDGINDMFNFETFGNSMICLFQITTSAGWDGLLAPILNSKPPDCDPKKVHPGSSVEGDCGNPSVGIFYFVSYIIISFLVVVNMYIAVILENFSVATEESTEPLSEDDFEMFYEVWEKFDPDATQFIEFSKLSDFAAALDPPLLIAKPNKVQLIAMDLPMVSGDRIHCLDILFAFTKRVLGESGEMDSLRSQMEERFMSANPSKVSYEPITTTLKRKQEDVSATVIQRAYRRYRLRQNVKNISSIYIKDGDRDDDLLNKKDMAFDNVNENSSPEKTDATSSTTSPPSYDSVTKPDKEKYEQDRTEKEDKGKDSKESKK
# In short: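 Whole-cell voltage clamp on HEK 293 cells stably expressing human Nav1.7 (automated patch), holding potential giving 20–50% inactivation; 20 ms pulses to −10 mV at 0.1 Hz. Single compound concentration applied 3 min, peak current inhibition measured; IC50 fitted from 3–5 cells per concentration.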
# human Nav1.7 [2] = target: T1, human Nav1.7; test: Nav 1.7 IWB In Vitro Assay (IonWorks Barracuda); settings: HEK293 cells stably transfected with human Nav 1.7; IonWorks Barracuda population patch-clamp; cells clamped to −20 mV for 4 minutes with compound; 26th pulse; read-out: hNav1.7 IWB IC50
# In short: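 Population patch clamp of HEK293 cells stably expressing human Nav 1.7: 26 pulses to −20 mV (150 ms, 5 Hz) from −110 mV, then 4 min at −20 mV with compound, 3 s recovery at −110 mV and the train repeated. % inhibition of 26th-pulse peak current vs no compound; IC50 from concentration-response curves.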
# human Nav1.7 [3] = target: T1, human Nav1.7; test: Nav 1.7 IWQ In Vitro Assay (IonWorks Quattro); settings: HEK293 cells stably transfected with human Nav 1.7; IonWorks Quattro population patch-clamp; 26th pulse to −20 mV, 5 Hz; cells unclamped 5 to 8 minutes with compound; read-out: hNav1.7 IWQ IC50
# Description: Nav 1.7 or Nav 1.5 IWQ In Vitro Assay
# HEK293 cells stably transfected with either human Nav 1.7 or human Nav 1.5 were recorded in population patch-clamp mode with the IonWorks® Quattro automated electrophysiology system (Molecular Devices, LLC, Sunnyvale, Calif.). Cells were voltage clamped to −110 mV for three seconds (Nav 1.7) or half a second (Nav 1.5) and sodium currents were elicited by a train of 26 depolarizations of 150 msec duration to −20 mV (Nav 1.7) or 0 mV (Nav 1.5) at a frequency of 5 Hz. Cells were then left unclamped for a period of 5 to 8 minutes while a single concentration of test compound was added. Following this compound incubation period, cells were then reclamped to −110 mV for three seconds (Nav1.7) or half a second (Nav1.5) to recover unbound channels and put through the same 26 pulse voltage protocol as above. Peak inward current during the 26th pulse to −20 mV (Nav 1.7) or 0 mV (Nav 1.5) in the presence of compound was divided by the peak inward current evoked by the 26th pulse to −20 mV (Nav1.7) or 0 mV (Nav1.5) in the absence of compound to determine percent inhibition. Concentration-response curves of percent.
Structure (SMILES),IC50 (human Nav1.7 [1]) [nM],IC50 (human Nav1.7 [2]) [nM],IC50 (human Nav1.7 [3]) [nM]
"COc1cc(-c2cc(F)cc(Cl)c2)c(F)cc1-n1c2c(ccc1=O)CN(S(=O)(=O)Nc1ncns1)CC2 (racemic) [5-(Rac), (Rac)-1-(3′-chloro-2,5′-difluoro-5-methoxy-4-biphenylyl)-2-oxo-N-1,2,4-thiadiazol-5-yl-1,5,7,8-tetrahydro-1,6-naphthyridine-6(2H)-sulfonamide]",54.6,6.7,7.3
"COc1cc(-c2cc(Cl)ccc2C)c(F)cc1-n1c2c(ccc1=O)CN(S(=O)(=O)Nc1ccon1)CC2 (racemic) [9-(Rac), (Rac)-1-(5′-chloro-2-fluoro-5-methoxy-2′-methyl-4-biphenylyl)-N-3-isoxazolyl-2-oxo-1,5,7,8-tetrahydro-1,6-naphthyridine-6(2H)-sulfonamide]",30.7,5.4,4.6
"COc1cc(-c2cc(F)cc(Cl)c2)c(F)cc1-n1c2c(ccc1=O)CN(S(=O)(=O)Nc1ccc(F)cn1)CC2 (racemic) [Example 12-(Rac), (Rac)-1-(3′-chloro-2,5′-difluoro-5-methoxy-4-biphenylyl)-N-(5-fluoro-2-pyridinyl)-2-oxo-1,5,7,8-tetrahydro-1,6-naphthyridine-6(2H)-sulfonamide]",106,91.3,81.5
"COc1cc(-c2cc(F)cc(Cl)c2)c(F)cc1-n1c2c(ccc1=O)CN(S(=O)(=O)Nc1cccc(F)n1)CC2 (racemic) [Example 13-(Rac), (Rac)-1-(3′-chloro-2,5′-difluoro-5-methoxy-4-biphenylyl)-N-(6-fluoro-2-pyridinyl)-2-oxo-1,5,7,8-tetrahydro-1,6-naphthyridine-6(2H)-sulfonamide]",123,27.6,33.2
"COc1cc(-c2cc(F)cc(F)c2)c(F)cc1-n1c2c(ccc1=O)CN(S(=O)(=O)Nc1cccc(F)n1)CC2 (racemic) [Example 14-(Rac), (Rac)-N-(6-fluoro-2-pyridinyl)-2-oxo-1-(2,3′,5′-trifluoro-5-methoxy-4-biphenylyl)-1,5,7,8-tetrahydro-1,6-naphthyridine-6(2H)-sulfonamide]",74.2,25.6,44.4
"COc1cc(-c2cc(OC)c(-n3c4c(ccc3=O)CN(S(=O)(=O)Nc3ccon3)CC4)cc2F)ccc1Cl (racemic) [Example 15-(Rac), (Rac)-1-(4′-chloro-2-fluoro-3′,5-dimethoxy-4-biphenylyl)-N-3-isoxazolyl-2-oxo-1,5,7,8-tetrahydro-1,6-naphthyridine-6(2H)-sulfonamide]",21.8,8.1,121
"COc1cc(-c2cccc(C(F)(F)F)c2)c(F)cc1-n1c2c(ccc1=O)CN(S(=O)(=O)Nc1ccon1)CC2 (racemic) [Example 16-(Rac), (Rac)-1-(2-fluoro-5-methoxy-3′-(trifluoromethyl)-4-biphenylyl)-N-3-isoxazolyl-2-oxo-1,5,7,8-tetrahydro-1,6-naphthyridine-6(2H)-sulfonamide]",38.8,5.3,4.7
"COc1cc(-c2cc(F)cc(Cl)c2)c(F)cc1-n1c2c(ccc1=O)CN(S(=O)(=O)Nc1ccon1)CC2 (racemic) [Example 18-(Rac), (Rac)-1-(3′-chloro-2,5′-difluoro-5-methoxy-4-biphenylyl)-N-3-isoxazolyl-2-oxo-1,5,7,8-tetrahydro-1,6-naphthyridine-6(2H)-sulfonamide]",39.9,6.9,4.3
"COc1cc(-c2cccc(OC(F)F)c2)c(F)cc1-n1c2c(ccc1=O)CN(S(=O)(=O)Nc1ccon1)CC2 (racemic) [Example 19-(Rac), (Rac)-1-(3′-(difluoromethoxy)-2-fluoro-5-methoxy-4-biphenylyl)-N-3-isoxazolyl-2-oxo-1,5,7,8-tetrahydro-1,6-naphthyridine-6(2H)-sulfonamide]",117,15.6,5.5
"COc1cc(-c2ccc(F)c(F)c2)c(F)cc1-n1c2c(ccc1=O)CN(S(=O)(=O)Nc1ccon1)CC2 (racemic) [Example 20-(Rac), (Rac)-N-3-isoxazolyl-2-oxo-1-(2,3′,4′-trifluoro-5-methoxy-4-biphenylyl)-1,5,7,8-tetrahydro-1,6-naphthyridine-6(2H)-sulfonamide]",159,31.5,6.7
"COc1cc(-c2ccc(C)c(F)c2)c(F)cc1-n1c2c(ccc1=O)CN(S(=O)(=O)Nc1ccon1)CC2 (racemic) [Example 21-(Rac), (Rac)-1-(2,3′-difluoro-5-methoxy-4′-methyl-4-biphenylyl)-N-3-isoxazolyl-2-oxo-1,5,7,8-tetrahydro-1,6-naphthyridine-6(2H)-sulfonamide]",91.3,17.8,14.3
"COc1cc(-c2cc(C(F)(F)F)cnc2OC)c(F)cc1-n1c2c(ccc1=O)CN(S(=O)(=O)Nc1ccon1)CC2 (racemic) [Example 23, (Rac)-1-(5-fluoro-2-methoxy-4-(2-methoxy-5-(trifluoromethyl)-3-pyridinyl)phenyl)-N-3-isoxazolyl-2-oxo-1,5,7,8-tetrahydro-1,6-naphthyridine-6(2H)-sulfonamide]",25.4,6.8,7
"COc1cc(-c2ccc(Cl)c(C)c2)c(F)cc1-n1c2c(ccc1=O)CN(S(=O)(=O)Nc1ccon1)CC2 (racemic) [Example 24-(Rac), (Rac)-1-(4′-chloro-2-fluoro-5-methoxy-3′-methyl-4-biphenylyl)-N-3-isoxazolyl-2-oxo-1,5,7,8-tetrahydro-1,6-naphthyridine-6(2H)-sulfonamide]",73.7,–,6.7
"COc1cc(-c2cc(F)cc(Cl)c2)c(F)cc1-n1c2c(ccc1=O)CN(S(=O)(=O)Nc1ncccn1)CC2 (racemic) [Example 31, (Rac)-1-(3′-chloro-2,5′-difluoro-5-methoxy-4-biphenylyl)-2-oxo-N-2-pyrimidinyl-1,5,7,8-tetrahydro-1,6-naphthyridine-6(2H)-sulfonamide]",137,36.2,28.1
"COc1cc(-c2ccc(F)c(F)c2)c(F)cc1-n1c2c(ccc1=O)CN(S(=O)(=O)Nc1cccnn1)CC2 (racemic) [Example 32-(Rac), (Rac)-2-oxo-N-3-pyridazinyl-1-(2,3′,4′-trifluoro-5-methoxy-4-biphenylyl)-1,5,7,8-tetrahydro-1,6-naphthyridine-6(2H)-sulfonamide]",161,30.5,23.7
"COc1cc(-c2ccc(Cl)c(C)c2)c(F)cc1-n1c2c(ccc1=O)CN(S(=O)(=O)Nc1cccnn1)CC2 (racemic) [Example 33-(Rac), (Rac)-1-(4′-chloro-2-fluoro-5-methoxy-3′-methyl-4-biphenylyl)-2-oxo-N-3-pyridazinyl-1,5,7,8-tetrahydro-1,6-naphthyridine-6(2H)-sulfonamide]",53.3,26.1,19.6
"COc1cc(C#CC2CCCC2)c(F)cc1-n1c2c(ccc1=O)CN(S(=O)(=O)Nc1ccon1)CC2 (racemic) [Example 34-(Rac), (Rac)-1-(4-(cyclopentylethynyl)-5-fluoro-2-methoxyphenyl)-N-3-isoxazolyl-2-oxo-1,5,7,8-tetrahydro-1,6-naphthyridine-6(2H)-sulfonamide]",408,48.5,88.8
"COc1cc(-c2cc(F)cc(F)c2)c(F)cc1-n1c2c(ccc1=O)CN(S(=O)(=O)Nc1ccon1)CC2 (single isomer, unassigned) [Example 25-P, P-N-3-isoxazolyl-2-oxo-1-(2,3′,5′-trifluoro-5-methoxy-4-biphenylyl)-1,5,7,8-tetrahydro-1,6-naphthyridine-6(2H)-sulfonamide]",176,–,7.2
"COc1cc(CCC(F)(F)F)c(F)cc1-n1c2c(ccc1=O)CN(S(=O)(=O)Nc1ccon1)CC2 [Example 94, P-1-(5-fluoro-2-methoxy-4-(3,3,3-trifluoropropyl)phenyl)-N-(isoxazol-3-yl)-2-oxo-1,2,7,8-tetrahydro-1,6-naphthyridine-6(5H)-sulfonamide]",–,33.5,18.7
"COc1cc(CCC(F)(F)F)c(F)cc1-n1c2c(ccc1=O)CN(S(=O)(=O)Nc1cccnn1)CC2 [Example 95, P-1-(5-fluoro-2-methoxy-4-(3,3,3-trifluoropropyl)phenyl)-2-oxo-N-(pyridazin-3-yl)-1,2,7,8-tetrahydro-1,6-naphthyridine-6(5H)-sulfonamide]",–,36.5,21
